Test results published in ChEMBL document CHEMBL5120815, “Synthesis of novel dual target inhibitors of PARP and EGFR and their antitumor activities in triple negative breast cancers” (Bioorg Med Chem, 2022).
pIC50: −log10 of the molar value. Calls of active or inactive are those of the source. No cut-off for these calls is given here.

Columns and labels:
HCC1937 = experiment: Cytotoxicity against human HCC1937 cells assessed as inhibition of cell growth incubated for 48 hrs by MTT assay; type: functional, cell-based; conditions: HCC1937, 48 h
MDA-MB-468 = experiment: Cytotoxicity against human MDA-MB-468 cells assessed as inhibition of cell growth incubated for 48 hrs by MTT assay; type: functional, cell-based; conditions: MDA-MB-468, 48 h
MCF7 [1] = experiment: Potentiation of adriamycin-induced cytotoxicity in human MCF7 cells harbouring wild type BRCA1/2 assessed as inhibition of cell growth at 25 uM incubated for 48 hrs in presence of 0.8 uM adriamycin by MTT assay relative to control; type: functional
MDA-MB-231 = experiment: Cytotoxicity against human MDA-MB-231 cells assessed as inhibition of cell growth incubated for 48 hrs by MTT assay; type: functional, cell-based; conditions: MDA-MB-231, 48 h
MCF7 [2] = experiment: Cytotoxicity against human MCF7 cells harbouring wild type BRCA1/2 assessed as inhibition of cell growth at 25 uM incubated for 48 hrs by MTT assay relative to control; type: functional
MCF7 [3] = experiment: Cytotoxicity against human MCF7 cells harbouring wild type BRCA1/2 assessed as inhibition of cell growth incubated for 48 hrs by MTT assay; type: functional, cell-based; conditions: MCF7, 48 h
MCF7 [4] = experiment: Synergistic cytotoxicity against human MCF7 cells harbouring wild type BRCA1/2 assessed as combination index at 25 uM incubated for 48 hrs in presence of 0.8 uM adriamycin by MTT assay; type: functional
MX1 = experiment: Cytotoxicity against human MX1 cells harbouring BRCA1 mutant assessed as inhibition of cell growth incubated for 48 hrs by MTT assay; type: functional, cell-based; conditions: MX1, 48 h
SK-BR-3 = experiment: Cytotoxicity against human SK-BR-3 cells harbouring wild type BRCA1/2 assessed as inhibition of cell growth incubated for 48 hrs by MTT assay; type: functional, cell-based; conditions: SK-BR-3, 48 h
MCF7 [5] = experiment: Synergistic cytotoxicity against human MCF7 cells harbouring wild type BRCA1/2 assessed as combination index at 10 uM incubated for 48 hrs in presence of 0.8 uM adriamycin by MTT assay; type: functional
MCF7 [6] = experiment: Potentiation of adriamycin-induced cytotoxicity in human MCF7 cells harbouring wild type BRCA1/2 assessed as inhibition of cell growth at 10 uM incubated for 48 hrs in presence of 0.8 uM adriamycin by MTT assay relative to control; type: functional
MCF7 [7] = experiment: Cytotoxicity against human MCF7 cells harbouring wild type BRCA1/2 assessed as inhibition of cell growth at 10 uM incubated for 48 hrs by MTT assay relative to control; type: functional
MCF7 [8] = experiment: Potentiation of adriamycin-induced cytotoxicity in human MCF7 cells harbouring wild type BRCA1/2 assessed as inhibition of cell growth at 17.5 uM incubated for 48 hrs in presence of 0.8 uM adriamycin by MTT assay relative to control; type: functional
MCF7 [9] = experiment: Cytotoxicity against human MCF7 cells harbouring wild type BRCA1/2 assessed as inhibition of cell growth at 17.5 uM incubated for 48 hrs by MTT assay relative to control; type: functional
MCF7 [10] = experiment: Synergistic cytotoxicity against human MCF7 cells harbouring wild type BRCA1/2 assessed as combination index at 17.5 uM incubated for 48 hrs in presence of 0.8 uM adriamycin by MTT assay; type: functional
[11] = target: Poly [ADP-ribose] polymerase 1 (Homo sapiens) (UniProt P09874); experiment: Inhibition of PARP-1 in human MCF7 cells assessed as inhibition of PARylation by measuring reduction in PARP protein expression at 1 uM pretreated with adriamycin followed by compound addition and measured after 48 hrs by Western bot analysis; type: cell-based
[12] = target: Epidermal growth factor receptor (Homo sapiens) (UniProt P00533); experiment: Inhibition of human EGFR in human HCC1937 cells assessed as reduction in phosphorylated EGFR level at 10 uM incubated for 48 hrs by Western blot analysis; type: cell-based
[13] = target: Epidermal growth factor receptor (Homo sapiens) (UniProt P00533); experiment: Inhibition of human EGFR in human HCC1937 cells assessed as reduction in EGFR level at 10 uM incubated for 48 hrs by Western blot analysis; type: cell-based
[14] = target: Poly [ADP-ribose] polymerase 1 (Homo sapiens) (UniProt P09874); experiment: Inhibition of PARP-1 (unknown origin) at 0.1 uM preincubated for 10 mins followed by PARP cocktail addition and measured after 60 mins by colorimetric assay relative to control; conditions: time 70.0 min

Poly [ADP-ribose] polymerase 1 (Homo sapiens), sequence (P09874 whole entry): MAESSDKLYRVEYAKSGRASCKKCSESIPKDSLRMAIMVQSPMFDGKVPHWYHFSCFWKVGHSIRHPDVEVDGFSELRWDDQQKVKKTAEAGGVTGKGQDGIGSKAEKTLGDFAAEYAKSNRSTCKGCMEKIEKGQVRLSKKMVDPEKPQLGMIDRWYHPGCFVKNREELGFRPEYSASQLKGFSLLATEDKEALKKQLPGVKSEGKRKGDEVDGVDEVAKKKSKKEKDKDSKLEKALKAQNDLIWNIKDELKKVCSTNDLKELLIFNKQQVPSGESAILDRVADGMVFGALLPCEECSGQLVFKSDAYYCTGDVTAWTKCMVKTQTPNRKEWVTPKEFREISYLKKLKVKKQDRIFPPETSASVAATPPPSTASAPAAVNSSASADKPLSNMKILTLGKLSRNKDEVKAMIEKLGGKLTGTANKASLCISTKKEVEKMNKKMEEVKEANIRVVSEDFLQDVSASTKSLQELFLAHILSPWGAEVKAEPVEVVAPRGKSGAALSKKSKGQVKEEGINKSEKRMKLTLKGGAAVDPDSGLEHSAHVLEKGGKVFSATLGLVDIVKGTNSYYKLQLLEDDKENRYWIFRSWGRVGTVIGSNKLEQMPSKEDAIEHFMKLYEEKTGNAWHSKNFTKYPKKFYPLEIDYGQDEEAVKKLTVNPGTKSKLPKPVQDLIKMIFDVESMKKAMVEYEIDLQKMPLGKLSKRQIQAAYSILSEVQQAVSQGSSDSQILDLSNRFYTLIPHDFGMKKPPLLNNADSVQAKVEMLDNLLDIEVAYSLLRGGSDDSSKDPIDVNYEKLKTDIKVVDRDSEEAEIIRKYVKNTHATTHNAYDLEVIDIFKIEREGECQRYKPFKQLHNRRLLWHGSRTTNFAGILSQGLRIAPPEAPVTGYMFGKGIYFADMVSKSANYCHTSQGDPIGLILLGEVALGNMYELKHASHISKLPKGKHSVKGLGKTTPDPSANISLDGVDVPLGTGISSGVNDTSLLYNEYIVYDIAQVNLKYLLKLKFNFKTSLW
Epidermal growth factor receptor (Homo sapiens), sequence (P00533 whole entry): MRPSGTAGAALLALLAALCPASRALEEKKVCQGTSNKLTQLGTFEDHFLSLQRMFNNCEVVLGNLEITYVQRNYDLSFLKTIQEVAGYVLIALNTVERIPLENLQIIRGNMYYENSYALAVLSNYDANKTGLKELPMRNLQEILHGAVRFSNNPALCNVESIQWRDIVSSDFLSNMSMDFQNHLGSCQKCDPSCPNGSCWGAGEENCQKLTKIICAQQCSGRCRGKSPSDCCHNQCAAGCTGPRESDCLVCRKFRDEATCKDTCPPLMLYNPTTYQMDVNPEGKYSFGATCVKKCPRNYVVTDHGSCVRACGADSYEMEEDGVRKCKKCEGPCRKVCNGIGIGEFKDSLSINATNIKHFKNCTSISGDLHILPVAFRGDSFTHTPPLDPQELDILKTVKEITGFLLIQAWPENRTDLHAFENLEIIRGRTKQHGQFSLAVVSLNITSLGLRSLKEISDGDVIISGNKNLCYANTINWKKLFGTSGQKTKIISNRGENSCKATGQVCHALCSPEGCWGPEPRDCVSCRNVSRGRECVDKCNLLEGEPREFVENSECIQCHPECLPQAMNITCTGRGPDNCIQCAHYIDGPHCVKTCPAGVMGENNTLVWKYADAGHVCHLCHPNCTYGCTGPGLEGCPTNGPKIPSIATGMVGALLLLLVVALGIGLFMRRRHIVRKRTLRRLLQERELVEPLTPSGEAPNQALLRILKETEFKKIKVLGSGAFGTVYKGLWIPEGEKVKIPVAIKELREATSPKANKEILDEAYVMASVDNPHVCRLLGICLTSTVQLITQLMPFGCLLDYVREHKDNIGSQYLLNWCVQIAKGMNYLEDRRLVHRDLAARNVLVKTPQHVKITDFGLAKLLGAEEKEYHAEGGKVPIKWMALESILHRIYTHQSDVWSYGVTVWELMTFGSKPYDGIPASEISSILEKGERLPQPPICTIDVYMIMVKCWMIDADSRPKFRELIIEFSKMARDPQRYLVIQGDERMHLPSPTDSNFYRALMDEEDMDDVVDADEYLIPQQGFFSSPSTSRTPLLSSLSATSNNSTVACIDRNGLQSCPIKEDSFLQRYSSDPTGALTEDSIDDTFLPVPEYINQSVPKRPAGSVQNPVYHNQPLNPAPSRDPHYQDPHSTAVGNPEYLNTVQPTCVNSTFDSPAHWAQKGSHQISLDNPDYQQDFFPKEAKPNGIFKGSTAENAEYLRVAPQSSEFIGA

Row | inhibition [11] | inhibition [12] | inhibition [13] | inhibition [14] [%] | Compound | pIC50 (HCC1937) | pIC50 (MDA-MB-468) | inhibition at 25 µM (MCF7 [1]) [%] | pIC50 (MDA-MB-231) | inhibition at 25 µM (MCF7 [2]) [%] | pIC50 (MCF7 [3]) | CI (MCF7 [4]) | pIC50 (MX1) | pIC50 (SK-BR-3) | CI (MCF7 [5]) | inhibition at 10 µM (MCF7 [6]) [%] | inhibition at 10 µM (MCF7 [7]) [%] | inhibition at 17.5 µM (MCF7 [8]) [%] | inhibition at 17.5 µM (MCF7 [9]) [%] | CI (MCF7 [10])
1 | – | – | – | – | O=C(c1cc(Cc2n[nH]c(=O)c3ccccc23)ccc1F)N1CCN(C(=O)C2CC2)CC1 [OLAPARIB] | < 3.70 | 3.70 | 27.9 | < 3.70 | 23.5 | 3.39 | 0.88 | – | – | – | – | – | – | – | –
2 | – | – | – | – | CCN1CCN(c2ncc3c(n2)CCN(C(=O)c2cc(Cc4n[nH]c(=O)c5ccccc45)ccc2F)C3)CC1 | 3.86 | – | 45.7 | < 3.70 | 9.13 | 4.05 | 0.2 | 4.05 | < 3.70 | – | – | – | – | – | –
3 | – | – | – | – | CCN(CC)c1ncc2c(n1)CCN(C(=O)c1cc(Cc3n[nH]c(=O)c4ccccc34)ccc1F)C2 | 4.18 | – | – | < 3.70 | – | 4.25 | – | 4.55 | < 3.70 | 0.82 | 37.5 | 21.6 | – | – | –
4 | – | – | – | – | CN1CCN(c2ncc3c(n2)CCN(C(=O)c2cc(Cc4n[nH]c(=O)c5ccccc45)ccc2F)C3)CC1 | 4.27 | – | 55.8 | < 3.70 | 37.4 | 4.14 | 0.67 | 4.33 | 4.02 | – | – | – | – | – | –
5 | – | – | – | – | CCCCN(CCCC)c1ncc2c(n1)CCN(C(=O)c1cc(Cc3n[nH]c(=O)c4ccccc34)ccc1F)C2 | < 3.70 | – | 39.6 | < 3.70 | 27.4 | 3.97 | 0.79 | 4.88 | 4.67 | – | – | – | – | – | –
6 | – | – | – | – | O=C(c1cc(Cc2n[nH]c(=O)c3ccccc23)ccc1F)N1CCc2nc(N3CCCC3)ncc2C1 | 5.11 | – | 40.9 | < 3.70 | 24.9 | 3.84 | 0.61 | 4.11 | < 3.70 | – | – | – | – | – | –
7 | – | – | – | – | CN(C)CCN(C)c1ncc2c(n1)CCN(C(=O)c1cc(Cc3n[nH]c(=O)c4ccccc34)ccc1F)C2 | < 3.70 | – | 43.9 | < 3.70 | 24.6 | 3.91 | 0.86 | 4.17 | < 3.70 | – | – | – | – | – | –
8 | – | – | – | – | O=C(c1cc(Cc2n[nH]c(=O)c3ccccc23)ccc1F)N1CCc2nc(N3CCCCC3)ncc2C1 | < 3.70 | – | – | < 3.70 | – | 4.05 | – | 4.64 | 4.61 | – | – | – | 43 | 18.9 | 0.44
9 | – | – | – | – | CCCN(CCC)c1ncc2c(n1)CCN(C(=O)c1cc(Cc3n[nH]c(=O)c4ccccc34)ccc1F)C2 | 4.69 | – | 36.6 | < 3.70 | 11.9 | 3.90 | 0.36 | 4.03 | < 3.70 | – | – | – | – | – | –
10 | Active | Active | Active | 92.1 | O=C(c1cc(Cc2n[nH]c(=O)c3ccccc23)ccc1F)N1CCc2nc(N3CCOCC3)ncc2C1 | 5.49 | 4.81 | 47.8 | < 3.70 | 18.6 | 3.70 | 0.39 | 4.73 | 4.30 | – | – | – | – | – | –
